Results taken from patent US20110155157A1, “CIGARETTE FILTER CONTAINING ROSEMARY EXTRACT AND A METHOD OF REDUCING DNA DAMAGE CAUSED BY HARMFUL AGENTS IN CIGARETTE SMOKE BY USE OF SAID FILTER” (priority 2006, published 2011).

Tested on: calf thymus DNA
Assay: BPDE-dG adduct formation by cigarette smoke solution in a cell-free system with DNA and (+)-BP-7,8-diol

Q: With Catalase as the substance, how does the “% BPDE-dG relative to standard CS” value (CSS diluted 1:19 with PBS pH 7.4, (+) BaP-7,8-diol, room temperature 2 h) read?
A: 12%

Q: And the “effect on the (−)-anti-BPDE-dG produced” value (in words)?
A: inhibited the formation of the adduct
